# Experimental data from patent US11840686B2, “Modulation of prekallikrein (PKK) expression” (Ionis Pharmaceuticals, Inc., priority 2013, dated 2023).
# Strand notation (5' to 3'): a small letter for the sugar, then the base; units joined by * are phosphorothioate-linked, units joined directly phosphodiester-linked; [ ] holds rarer units or linkages, { } end groups; capitals alone tell only the bases. e = 2'-O-(2-methoxyethyl) (MOE); [5mC] = 5-methylcytosine; d = 2'-deoxy (DNA)
# Tested on: human PKK mRNA
# Test: Antisense inhibition of human PKK mRNA in HepaRG cells, 5,000 nM (Example 2)
# Format: cell-based
# In short: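 qRT-PCR (RTS3454) read-out, RIBOGREEN-normalized; % inhibition vs untreated cells. HepaRG, 20,000 cells/well, electroporation, 5,000 nM ASO, ~24 h.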
# [1] = Table 7, HepaRG cells, electroporation with 5,000 nM antisense oligonucleotide, approx. 24 hours, PKK mRNA by RT-PCR (RTS3454), relative to untreated control cells
# [2] = Table 13, human PKK mRNA in HepaRG cells, 5-10-5 gapmers
# [3] = HepaRG cells, electroporation, 5,000 nM antisense oligonucleotide, approx. 24 hours, primer probe set RTS3454, relative to untreated control cells, Table 11
# [4] = HepaRG cells, 5,000 nM antisense oligonucleotide, 5-10-5 gapmers, Table 16
# [5] = Table 9 experiment, HepaRG cells, 20,000 cells per well, electroporation with 5,000 nM antisense oligonucleotide, approx. 24 hours, PKK mRNA by RT-PCR (RTS3454), relative to untreated control cells
# [6] = Table 10 experiment, HepaRG cells, 20,000 cells per well, electroporation with 5,000 nM antisense oligonucleotide, approx. 24 hours, PKK mRNA by RT-PCR (RTS3454), relative to untreated control cells
# [7] = Table 8, HepaRG cells, electroporation with 5,000 nM antisense oligonucleotide, approx. 24 hours, PKK mRNA by RT-PCR (RTS3454), relative to untreated control cells
# [8] = HepaRG cells, electroporation with 5,000 nM antisense oligonucleotide, approximately 24 hours, PKK mRNA by RT-PCR (RTS3454), relative to untreated control cells, Table 5 experiment
# [9] = human PKK mRNA, HepaRG cells, 5,000 nM antisense oligonucleotide, Table 18
# [10] = HepaRG cells, electroporation with 5,000 nM antisense oligonucleotide, approximately 24 hours, PKK mRNA by RT-PCR (RTS3454), relative to untreated control cells, Table 6 experiment
# [11] = human PKK mRNA in HepaRG cells, 5-10-5 gapmers, Table 14
substance,measurement,setting,value
547394 (eT*eT*eT*eG*e[5mC]*dA*dG*dG*dT*dT*dA*dA*dA*dA*dG*eG*e[5mC]*eT*eA*eT; antisense) [compound 547394],% inhibition,[1],29%
546842 (eT*e[5mC]*eA*e[5mC]*eT*dG*dT*d[5mC]*d[5mC]*dT*dA*dT*dA*dA*d[5mC]*eT*e[5mC]*eT*eA*eA; antisense) [compound 546842],% inhibition,[2],54%
546375 (antisense eG*eA*e[5mC]*e[5mC]*e[5mC]*d[5mC]*d[5mC]*d[5mC]*dA*dG*dG*d[5mC]*dT*d[5mC]*dA*eG*eA*eA*eT*eT) [compound 546375],% inhibition,[3],48%
547688 (antisense e[5mC]*eA*e[5mC]*eT*eG*dT*d[5mC]*d[5mC]*dT*dA*dT*dA*dA*d[5mC]*dT*eA*eT*eA*eT*e[5mC]) [compound 547688],% inhibition,[4],47%
547451 (antisense eT*eT*eG*eG*eT*dG*dA*dA*dT*dA*dA*dT*dA*dA*dT*e[5mC]*eT*e[5mC]*eT*eT) [compound 547451],% inhibition,[5],75%
same,% inhibition,[6],64%
546235 (eG*eG*e[5mC]*eT*eA*dT*dA*dT*d[5mC]*d[5mC]*dA*dG*dA*dT*dA*eT*eG*eG*eT*eG; antisense) [compound 546235],% inhibition,[1],77%
548712 (DNA eA*e[5mC]*eT*dG*dT*dA*d[5mC]*dT*dA*dG*dT*dT*dT*e[5mC]*e[5mC]*eT; antisense) [compound 548712],% inhibition,"HepaRG cells, 5,000 nM antisense oligonucleotide, human PKK mRNA, Table 18",9%
546243 (eA*eG*eA*eA*eT*dG*dG*d[5mC]*dA*dG*dG*dG*dT*dT*d[5mC]*eA*eG*eG*eT*eA; antisense) [compound 546243],% inhibition,[1],16%
547675 (antisense eT*eG*eT*e[5mC]*e[5mC]*dT*dA*dT*dA*dA*d[5mC]*dT*dA*dT*dA*eA*e[5mC]*eA*eA*eT) [compound 547675],% inhibition,"human PKK mRNA, HepaRG cells, 5-10-5 motif oligonucleotides targeting SEQ ID NO: 1 and 10",10%
546290 (antisense e[5mC]*e[5mC]*e[5mC]*e[5mC]*eA*dA*dG*dA*dA*dG*dA*dG*dT*dT*dT*eG*eT*eT*e[5mC]*e[5mC]) [compound 546290],% inhibition,[7],86%
546388 (e[5mC]*eT*eG*eA*eA*dA*dG*d[5mC]*dG*dG*dG*d[5mC]*dT*dT*d[5mC]*eA*eG*e[5mC]*e[5mC]*eA; antisense) [compound 546388],% inhibition,[3],71%
546839 (e[5mC]*e[5mC]*eT*eA*eT*dA*dA*d[5mC]*dT*d[5mC]*dT*dA*dA*d[5mC]*dA*eG*eT*eA*eT*e[5mC]; antisense) [compound 546839],% inhibition,[2],47%
547717 (eA*e[5mC]*eT*e[5mC]*eT*dG*dG*d[5mC]*dA*d[5mC]*dT*dG*dG*dT*d[5mC]*eA*eT*eG*eG*eA; antisense) [compound 547717],% inhibition,[4],54%
546172 (antisense eA*eA*e[5mC]*eA*e[5mC]*dT*dA*dT*d[5mC]*dT*dT*dT*d[5mC]*dA*dA*eG*eA*eA*eG*e[5mC]) [compound 546172],% inhibition,[8],81%
546231 (e[5mC]*eT*eT*eG*eG*dT*dG*dT*dG*d[5mC]*d[5mC]*dA*d[5mC]*dT*dT*eT*e[5mC]*eA*eG*eA; antisense) [compound 546231],% inhibition,[1],79%
548729 (DNA eG*eT*eA*e[5mC]*dT*dA*dG*dT*dT*dT*d[5mC]*d[5mC]*dT*dA*eT*eA*eA; antisense) [compound 548729],% inhibition,[9],13%
547292 (antisense eT*eA*e[5mC]*eA*eT*dG*dG*dA*dA*dG*d[5mC]*dT*dA*d[5mC]*dA*eT*e[5mC]*e[5mC]*e[5mC]*e[5mC]) [compound 547292],% inhibition,[8],60%
546283 (antisense eT*e[5mC]*eT*e[5mC]*eA*dA*dA*dG*dA*dG*dT*dA*dA*d[5mC]*d[5mC]*eA*eG*eA*eG*e[5mC]) [compound 546283],% inhibition,[7],88%
546192 (antisense eA*eA*eT*eT*eG*dA*d[5mC]*dT*d[5mC]*d[5mC]*dT*d[5mC]*dT*d[5mC]*dA*eT*eA*eT*e[5mC]*eA) [compound 546192],% inhibition,[10],51%
546263 (eG*eG*eA*eG*eT*dA*dA*dA*dG*dA*dA*dT*dA*dA*dG*eT*eG*eA*eA*eA; antisense) [compound 546263],% inhibition,[7],0%
546874 (eA*eT*eA*eA*e[5mC]*dA*dA*dT*dA*dT*d[5mC]*dA*d[5mC]*dT*dG*eT*eA*e[5mC]*e[5mC]*eT; antisense) [compound 546874],% inhibition,[11],68%
546250 (e[5mC]*eA*eT*eT*e[5mC]*dA*dA*dT*dT*d[5mC]*dT*dT*d[5mC]*dT*d[5mC]*e[5mC]*eT*e[5mC]*e[5mC]*eA; antisense) [compound 546250],% inhibition,[1],65%
547576 (e[5mC]*eT*eA*eG*eT*dT*dT*d[5mC]*d[5mC]*dT*dA*dT*dA*dA*d[5mC]*eT*eG*e[5mC]*eT*eG; antisense) [compound 547576],% inhibition,[2],29%
547606 (antisense eA*eA*e[5mC]*eA*eA*dT*dA*dT*d[5mC]*dA*d[5mC]*dT*dG*dT*dA*e[5mC]*e[5mC]*eT*eA*eT) [compound 547606],% inhibition,[11],43%
547347 (antisense eA*e[5mC]*eT*eG*e[5mC]*dT*dA*dA*d[5mC]*d[5mC]*dT*dT*dA*dG*dA*e[5mC]*eA*e[5mC]*eA*eT) [compound 547347],% inhibition,[10],82%
546159 (eT*eA*eG*e[5mC]*eA*dA*dA*d[5mC]*dA*d[5mC]*d[5mC]*dT*dT*dG*dG*eG*eT*eG*eG*eA; antisense) [compound 546159],% inhibition,[8],76%
547682 (antisense e[5mC]*eA*eA*eT*eA*dT*d[5mC]*dA*d[5mC]*dT*dG*dT*dA*d[5mC]*d[5mC]*eT*eA*eT*eA*eT) [compound 547682],% inhibition,[4],20%
547507 (antisense e[5mC]*eA*eG*eG*e[5mC]*dT*d[5mC]*dA*dG*dA*dA*dT*dT*dT*dG*eA*e[5mC]*eT*eT*eG) [compound 547507],% inhibition,[3],56%
546983 (eG*eA*eT*eG*eA*d[5mC]*d[5mC]*dT*dG*d[5mC]*dA*dG*dA*dT*dG*e[5mC]*eA*e[5mC]*eA*eG; antisense) [compound 546983],% inhibition,[4],74%
546994 (eG*eT*eT*e[5mC]*eA*dT*dG*dT*dG*dG*d[5mC]*dA*dA*d[5mC]*d[5mC]*eT*eG*eT*eG*eA; antisense) [compound 546994],% inhibition,[4],58%
546205 (antisense eG*eT*eA*e[5mC]*eT*dT*dT*dA*dA*dT*dA*dG*dG*d[5mC]*dA*eA*eT*eT*eG*eT) [compound 546205],% inhibition,[10],83%
547521 (antisense e[5mC]*eT*eT*e[5mC]*eA*dG*d[5mC]*d[5mC]*dA*dG*dA*d[5mC]*dA*dT*dT*eG*eT*e[5mC]*e[5mC]*eT) [compound 547521],% inhibition,[3],58%
546868 (eT*eA*e[5mC]*e[5mC]*eT*dA*dT*dA*dA*d[5mC]*dT*d[5mC]*dT*dA*dA*e[5mC]*eA*eG*eT*eA; antisense) [compound 546868],% inhibition,[11],51%
547010 (eG*eA*eA*eT*eT*dG*dG*dT*dG*dG*dT*dG*dG*dG*dA*eT*eT*eG*eG*eT; antisense) [compound 547010],% inhibition,"HepaRG cells, 5,000 nM antisense oligonucleotide, 5-10-5 gapmers, Table 17",39%
547603 (antisense eT*eA*eT*e[5mC]*eA*d[5mC]*dT*dG*dT*dA*d[5mC]*d[5mC]*dT*dA*dT*eA*eA*e[5mC]*eT*e[5mC]) [compound 547603],% inhibition,[11],41%
548781 (antisense eA*e[5mC]*e[5mC]*eT*dA*dT*dA*dA*d[5mC]*dT*dA*dT*dA*eA*e[5mC]*eA*eG) [compound 548781],% inhibition,[9],0%
546309 (antisense e[5mC]*e[5mC]*e[5mC]*eT*eT*d[5mC]*dT*dG*dA*dG*dA*d[5mC]*dT*dT*dT*eA*eT*eA*eG*eT) [compound 546309],% inhibition,[5],88%
same,% inhibition,[6],81%
547354 (eA*eT*eT*eG*eT*dT*d[5mC]*d[5mC]*dG*dG*dT*dA*d[5mC]*dT*d[5mC]*eT*eG*e[5mC]*e[5mC]*eT; antisense) [compound 547354],% inhibition,[10],89%
546160 (eA*e[5mC]*eT*eG*eA*dA*dT*dA*dG*d[5mC]*dA*dA*dA*d[5mC]*dA*e[5mC]*e[5mC]*eT*eT*eG; antisense) [compound 546160],% inhibition,[8],78%
546218 (antisense eT*eG*eG*eT*e[5mC]*d[5mC]*dG*dA*d[5mC]*dA*d[5mC]*dA*d[5mC]*dA*dA*eA*eA*eG*e[5mC]*eA) [compound 546218],% inhibition,[1],71%
546148 (e[5mC]*eG*eT*eT*eT*dT*d[5mC]*dA*dT*dA*dG*dA*dG*dT*dT*eG*eA*eG*eT*e[5mC]; antisense) [compound 546148],% inhibition,[8],68%
547447 (antisense eA*eT*eT*eT*eG*dT*dG*dA*dG*dA*dA*dA*dG*dG*dT*eG*eT*eA*eT*e[5mC]) [compound 547447],% inhibition,[7],80%
